Experimental data as given in US20260049101A1, “TOPICAL TREATMENT OF SKIN CANCER USING OLIGOPEPTIDES” (BACOBA AG, priority 2022, published 2026).
Entries after “also recorded” stand apart in the source; their conditions may differ. Square brackets hold non-standard residues; d marks the D form. Peptide text beside a SMILES is read from it. * marks the point of attachment. NH(1-CH2NMe2-cBu) = CN(C)CC1(N*)CCC1; Benzoyl(4-F) = O=C(c1ccc(F)cc1)*; hCha = N[C@@H](CCC1CCCCC1)C(=O)O; Aib = CC(C)(N)C(=O)O; βAla = NCCC(=O)O

Legend:
[1] = tested on: patient derived Basal Cell Carcinoma (BCC); test: Ex vivo patient-derived nodular BCC (Example 10), Ki67; format: cell-based, human; conditions: 500 nM, 4 days, compared to Vismodegib (20 μM); p<0.002
Procedure: Tumour material was harvested from a nodular basal cell carcinoma (BCC) from a patient's upper back.
Vismodegib (20 μM) was used as a positive control.

[2] = tested on: healthy skin dermal fibroblasts
Procedure: (§1) For the maintenance of healthy human fibroblast cell culture Dulbecco's Modified Eagle Medium (DMEM, Cat #11966025, Gibco) supplemented with 10% heat-inactivated fetal bovine serum (Cat #S006420H01, BioWest) was used. For the maintenance of melanoma cell cultures RPMI-1640 (Cat #R0883, Gibco) supplemented with L-glutamine (Cat #25030-081, Gibco), 1 mM sodium pyruvate (Cat #S8636, Sigma-Aldrich), 10% heat-inactivated fetal bovine serum (Cat #S006420H01, BioWest) and 1% Penicillin-Streptomycin (Cat #15140122, Gibco) was used. The MyLa_CTCL cell cultures were cultivated in RPMI 1640 Medium (R0883) supplemented with 2 mM L-Glutamine (G7513), 10 U/ml IL-2 (H7041), 10 U/ml IL-4 (H7291) and 10% Human AB Serum (H4522). The cutaneous squamous cell carcinoma cell cultures A431 and SCC13 were cultivated in Dulbecco's Modified Eagle Medium (DMEM, Cat #11966025, Gibco) supplemented with 10% heat-inactivated fetal bovine serum (Cat #S006420H01, BioWest).
(§2) To determine the half maximal inhibitory concentrations (IC50's) serial dilution of compounds in DMSO to 1000× was performed (10 mM, 5 mM, 1 mM, 500 μM, 250 μM, 100 μM, 10 μM, 1 μM). 2 μl of these dilutions were further diluted in 198 μl growth medium with supplements, mixed well and 10 μl were further dispensed in triplicates to the 96-well plates containing cells in 90 μl.
(§3) For each drug condition and cell culture (for each row of the triplicate) a well with only RPMI-1640 complete/KSFM/DMEM media and one with media and DMSO were made as controls. DMSO was never at a higher concentration than 0.2% v/v. Triplicates were seeded for each condition. On the day of the assay, the medium was exchanged with cell culture media containing 0.1% of Resazurin-sodium salt stock solution (stock: 0.015 mg/ml, in PBS, Cat #R7017, Sigma-Aldrich). […] With a fluorescence-based plate reader (Infinite M200 Pro, Tecan, Switzerland) using excitations between […] and emissions at 590 nM the cell-culture plates were readout. The calculations and graphs are performed with GraphPad Prism program. Vehicle treated wells were set to 100% viability.

[3] = tested on: cutaneous melanoma M150507; conditions: read-out: IC50 M150507
Procedure: as §1, §2, §3

[4] = tested on: M130107; conditions: read-out: IC50 M130107
Procedure: as §1, §2, §3

[5] = tested on: cutaneous T cell lymphoma MyLa_CTCL; conditions: read-out: IC50 MyLa_CTCL
Procedure: as §1, §2, §3

[6] = tested on: cutaneous melanoma M150672; conditions: read-out: IC50 M150672
Procedure: as §1, §2, §3

[7] = tested on: cutaneous squamous cell carcinoma cell line SCC13; conditions: read-out: IC50 SCC13
Procedure: as §1, §2, §3

[8] = tested on: cutaneous squamous cell carcinoma cell line A431_SCC; conditions: read-out: IC50 A431
Procedure: as §1, §2, §3

[9] = tested on: cutaneous melanoma M010817; conditions: read-out: IC50 M010817
Procedure: as §1, §2, §3

[10] = Dermal tolerability in the in vivo efficacy test; set-up: species or system mouse; conditions: 20 μl of 5% 6027 once a day
Procedure: In vivo efficacy test methodology. C57Bl/6 mice (Janvier Labs); females; 6-8 weeks old at beginning of the treatment. The tumour was induced through intradermal inoculation of 1×10^5 cells per mouse intradermally in the skin of the neck. A total of 24 mice were used (n=8 for vehicle, n=8 for 5% 6027, n=8 for leucinostatin A 0.2%). Test item was applied starting on day 1 after inoculation of the tumour cells. The test items of 20 μl of 5% 6027 and of 0.2% Leucinostatin A were applied dermally with a pipette once a day every day for up to 21 days to the intact skin area of about 1 cm^2 on the site were the B16-F10 cells had been injected. If ulceration occurred then the animal was removed from the test and sacrificed.

Structure (SMILES): CC(C)C[C@H](NC(=O)[C@H](CCC1CCCCC1)NC(=O)[C@@H]1CCCN1C(=O)c1ccc(F)cc1)C(=O)NC(C)(C)C(=O)N[C@@H](CC(C)C)C(=O)N[C@@H](CC(C)C)C(=O)NC(C)(C)C(=O)NC(C)(C)C(=O)NCCC(=O)NC1(CN(C)C)CCC1 [Compound 6027, (2S)-2-[(2S)-4-cyclohexyl-2-{[(2S)-1-(4-fluorobenzoyl)pyrrolidin-2-yl]formamido}butanamido]-N-(1-{[(1S)-1-{[(1S)-1-({1-[(1-{[2-({1-[(dimethylamino)methyl]cyclobutyl}carbamoyl)ethyl]carbamoyl}-1-methylethyl)carbamoyl]-1-methylethyl}carbamoyl)-3-methylbutyl]carbamoyl}-3-methylbutyl]carbamoyl}-1-methylethyl)-4-methylpentanamide] ({Benzoyl(4-F)}-P[hCha]L[Aib]LL[Aib][Aib][βAla]-{NH(1-CH2NMe2-cBu)})
- cell proliferation (Ki67) [1]: significantly reduced
- cytotoxicity against healthy skin dermal fibroblasts compared with skin cancer cell lines [2]: less pronounced
- IC50 ([2]; read-out: IC50 Fibroblast, healthy skin dermal fibroblasts): 3030 nM
- IC50 [3]: 56 nM
- IC50 [4]: 169 nM
- IC50 [5]: 451 nM
- IC50 [6]: 122 nM
- IC50 [7]: 191 nM
- IC50 [8]: 70 nM
- IC50 [9]: 60 nM
- skin irritations or other side effects [10]: No skin irritations or other side effects were observed; also recorded: did not show skin irritations
- tolerability of dermal treatment [10]: well tolerated
